Measured values published in ChEMBL document CHEMBL1142038, “Novel and potent NPY5 receptor antagonists derived from virtual screening and iterative parallel chemistry design” (Bioorg Med Chem Lett, 2005).

Legend:
[1] = biological target: T1, Neuropeptide Y receptor type 5 (Mus musculus, UniProt O70342); assay: Inhibitory concentration against Neuropeptide Y receptor type 5 in mouse; assay type: organism-based
T1 sequence (O70342 whole entry): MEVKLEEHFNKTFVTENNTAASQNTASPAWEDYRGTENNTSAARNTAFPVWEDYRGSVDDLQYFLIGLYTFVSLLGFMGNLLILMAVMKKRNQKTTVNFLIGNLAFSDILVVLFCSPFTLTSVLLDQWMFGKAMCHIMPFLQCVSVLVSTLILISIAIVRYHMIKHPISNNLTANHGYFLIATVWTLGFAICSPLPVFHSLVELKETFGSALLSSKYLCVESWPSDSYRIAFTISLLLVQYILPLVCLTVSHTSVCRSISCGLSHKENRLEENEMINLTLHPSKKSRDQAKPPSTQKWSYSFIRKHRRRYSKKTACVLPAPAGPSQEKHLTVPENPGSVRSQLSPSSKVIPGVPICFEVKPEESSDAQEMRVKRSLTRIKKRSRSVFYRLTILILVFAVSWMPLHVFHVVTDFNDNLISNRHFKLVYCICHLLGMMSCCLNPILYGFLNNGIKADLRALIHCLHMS

[2] = biological target: T1, Neuropeptide Y receptor type 5; assay: Inhibitory concentration against Neuropeptide Y receptor type 5 in mouse; Inactive

Row | IC50 [1] | IC50 [2] | SMILES
1 | 1670 nM |  | O=C(c1cnc(Nc2ccc(Cl)cc2)s1)c1ccccc1F
2 | 20 nM |  | N#Cc1cccc(Nc2ncc(C(=O)c3ccccc3C(F)(F)F)s2)c1
3 | 2230 nM |  | COc1ccc(C(=O)c2cnc(Nc3cccc(C#N)c3)s2)cc1
4 | 4.2 nM |  | Cc1ccccc1C(=O)c1cnc(Nc2cccc(C#N)c2)s1
5 |  | Not Active | O=C(c1cnc(Nc2cc(Cl)cc(Cl)c2)s1)c1ccccc1F
6 | 14 nM |  | Cc1cc(C(=O)c2cnc(Nc3cccc(C#N)c3)s2)c(C)s1
7 | 19 nM |  | N#Cc1cccc(Nc2ncc(C(=O)c3ccccc3F)s2)c1
8 | 1000 nM |  | COc1cccc(Nc2ncc(C(=O)c3ccccc3F)s2)c1
9 | 395 nM |  | Cc1cc(C(=O)c2cnc(Nc3cccc(C(F)(F)F)c3)s2)c(C)s1
10 | 32 nM |  | CCc1ccccc1C(=O)c1cnc(Nc2cccc(C(F)(F)F)c2)s1
11 | 885 nM |  | O=C(c1cccc(F)c1)c1cnc(Nc2cccc(C(F)(F)F)c2)s1
12 | 63 nM |  | Cc1ccccc1C(=O)c1cnc(Nc2cccc(C(F)(F)F)c2)s1
13 | 2.8 nM |  | CCc1ccccc1C(=O)c1cnc(Nc2cccc(C#N)c2)s1
14 | 138 nM |  | O=C(c1cnc(Nc2cccc(C(F)(F)F)c2)s1)c1ccccc1C(F)(F)F
